Data from patent US9827189B2, “Stable parenteral DNJ compositions” (AMICUS THERAPEUTICS, INC., priority 2013, dated 2017).

Experiments:
[1] = Stability and integrity of 1-DNJ-HCl in buffer solutions at 60° C. by NP-HPLC (UV and CAD) and discoloration; type: physicochemical; conditions: 1-DNJ/buffer formulations with a pH in the range of about 6.0-7.5
Method: 1-DNJ-HCl was dissolved in sodium phosphate buffer. 1-DNJ-HCl concentration was 60 mg/mL; sodium phosphate buffer concentration was 100 mM at pH 4.89. The formulation was stored at 60° C. for 4 days. 1-DNJ-HCl solution in water was used as a control. Reaction rate for small molecules such as 1-DNJ-HCl generally follows Arrhenius equation where reaction rate nearly doubles for every 10° C. increase in the temperature. Thus, under this model, the reaction rate at 60° C. would be 2^5 or 32 times the reaction rate at 10° C. Therefore during 4 days at 60° C. 1-DNJ-HCl would degrade by approximately the same percentage as during 128 days (4*32) at 10° C. The stability of 1-DNJ-HCl was measured by normal phase high performance liquid chromatography (NP-HPLC). 1-DNJ-HCl was recorded by UV chromatograms and by Charged Aerosol Detector (CAD) chromatograms. Mobile phase consisted of ACN/30 mM Ammonium Acetate (90/10, v/v). The flow rate was 1.0 ml/min with 5 μl injection at 400° C. UV absorbance was measured at 220 nm CAD detector settings were 35.0 psi, Gain: 100 pA. 1-DNJ-HCl was dissolved in sodium acetate buffer. The 1-DNJ-HCl concentration was 60 mg/mL; sodium acetate buffer concentration was 50 mM at pH 5.5. The formulation was stored at 60° C. for 4 days. 1-DNJ-HCl solution in water was used as control. Reaction rate for small molecules such as 1-DNJ-HCl generally follows the Arrhenius equation, in which the reaction rate nearly doubles for every 10°K increase in the temperature. Thus the reaction rate, under this model, at 60° C. would be 2^5 or 32 times the reaction rate at 10° C. Therefore during 4 days at 60° C. 1-DNJ-HCl would degrade by approximately same percentage as during 128 days at 10° C. The stability of 1-DNJ-HCl was measured by NP-HPLC. Presence of 1-DNJ-HCl was recorded by UV absorbance detector and by Charged Aerosol Detector. Mobile phase consisted of ACN/30 mM Ammonium Acetate (90/10, v/v). The flow rate was 1.0 ml/min with 5 μl injection at 400 C. UV absorbance was measured at 220 nm. CAD detector settings were 35.0 psi, Gain: 100 pA. 1-DNJ-HCl was dissolved in sodium citrate buffer that further includes EDTA. 1-DNJ-HCl concentration was 60 mg/mL; sodium citrate buffer concentration was 50 mM at pH 4.6. The EDTA concentration was 0.05% w/v. Some samples were stored under the nitrogen atmosphere (essentially 100% nitrogen) while others were stored under air. The formulation was stored at 60° C. for 8 days. Stability of 1-DNJ-HCl was measured by NP-HPLC. Presence of 1-DNJ-HCl was recorded by UV absorbance detector and by Charged Aerosol Detector. Mobile phase consisted of ACN/30 mM Ammonium Acetate (90/10, v/v). The flow rate was 1.0 ml/min with 5 μl injection at 400 C. UV absorbance was measured at 220 nm. CAD detector settings were 35.0 psi, Gain: 100 pA. 1-DNJ-HCl was dissolved in sodium citrate buffer. 1-DNJ-HCl concentration was 60 mg/mL; sodium citrate buffer concentration was 50 mM at pH 4.7. The formulation was stored at 60° C. for 8 days. 1-DNJ-HCl solution in water was used as control. Stability of 1-DNJ-HCl was measured by NP-HPLC. Presence of 1-DNJ-HCl was recorded by UV absorbance detector and by Charged Aerosol Detector. Mobile phase consisted of ACN/30 mM Ammonium Acetate (90/10, v/v). The flow rate was 1.0 ml/min with 5 μl injection at 400 C. UV absorbance was measured at 220 nm. CAD detector settings were 35.0 psi, Gain: 100 pA. 1-DNJ-HCl was dissolved in sodium citrate buffer. 1-DNJ-HCl concentration was 60 mg/mL; sodium citrate buffer concentration was 50 mM at pH 5.0. The formulation was stored at 60° C. for 17 days. The samples were stored under the nitrogen atmosphere (essentially 100% nitrogen). 1-DNJ-HCl solution in water was used as control. Reaction rate for small molecules such as 1-DNJ-HCl generally follows Arrhenius equation where reaction rate nearly doubles for every 10°K increase in the temperature. Thus reaction rate at 60° C. would be 2^5 or 32 times the reaction rate at 10° C. Therefore during 17 days at 60° C. […]

human whole blood = assay: Hemolytic potential in human whole blood; type: cell-based; conditions: 37 ° C. 30 minutes
Method: (§1) 1-DNJ-HCl was dissolved in sodium citrate buffer. 1-DNJ-HCl concentration was 30 mg/mL (resulting free 1-DNJ concentration was 25 mg/mL); sodium citrate buffer concentration was 50 mM at pH 5.0. 1-DNJ-HCl formulation was added to whole blood samples of male human, rat, and cynomolgus monkey. […]. Buffer served as a negative control, while Triton-X 100 (Lysing agent) served as a positive control. Additionally blood sample without any additions was used as a negative control. The samples were stored at 4° C. Blood samples were incubated at 37 ° C. for 30 minutes with the 1-DNJ-HCl formulation, after which the samples were centrifuged. The amount of hemoglobin in the supernatant from each centrifuged sample was measured using a commercially available hemoglobin assay kit (BioAssay Systems, QuantiChrom™ Hemoglobin Assay Kit) and the Tecan microplate reader.

[2] = tested on: cynomolgus monkey whole blood; assay: Hemolytic potential in cynomolgus monkey whole blood; type: cell-based; conditions: 37 ° C. 30 minutes
Method: as §1

rat whole blood = assay: Hemolytic potential in rat whole blood; type: cell-based, Sprague Dawley rat; conditions: 37 ° C. 30 minutes
Method: as §1

[3] = 500 μL blood mixed with 500 μL sample (30 mg/mL AT2220 or 0.1% Triton X-100)
[4] = 500 μL blood mixed with 500 μL sample, 30 mg/mL AT2220 dilution 1, 0.1% Triton X-100 dilution 100
[5] = supernatant, 500 μL blood mixed with 500 μL sample (30 mg/mL AT2220 or 0.1% Triton X-100)

Row | Discoloration [1] | Compound | % RBC lysis (human whole blood; [3]) [%] | Avg OD (n = 4) (human whole blood; [4]) | Hemoglobin (human whole blood; [5]) [mg/dL] | % RBC lysis [2, 3] [%] | Avg OD (n = 4) [2, 4] | Hemoglobin [2, 5] [mg/dL] | % RBC lysis (rat whole blood; [3]) [%] | Avg OD (n = 4) (rat whole blood; [4]) | Hemoglobin (rat whole blood; [5]) [mg/dL]
1 | discoloration may occur | OC[C@H]1NC[C@H](O)[C@@H](O)[C@@H]1O [1-DNJ, 1-deoxynojirimycin] | – | – | – | – | – | – | – | – | –
2 | – | Triton X-100 | 100.0 | 0.2768 | 6899 | 100.0 | 0.2000 | 4984 | 100.0 | 0.2567 | 6398
